Reference: patent US11415579B2, “Assay for measuring a rate of reaction between a target and a ligand candidate” (Imperial College Innovations Ltd., priority 2016, dated 2022)

How the values were obtained:
Cdk2(S276C) (C177A) = molecular target: T1, Cdk2(S276C) (C177A) (Homo sapiens, UniProt P24941, C177A/S276C); assay: Kinetic thiol consumption assay with Cdk2 mutant S276C; format: binding; parameters: key to Rate enhancement, Cdk2 S276C: rate constant with Cdk2 ÷ rate constant with model thiol (fold); conditions: additional mutation C177A; for Rate constant with Cdk2 S276C: Protein: Cdk2, cysteine position S276C, in h^-1
T1 construct: poly-histidine; made in house; host or cells: E. coli
Experimental: (§1) To wells containing 150 μL thiol (Cdk2 or model thiol) (5 μM) in degassed phosphate buffer (pH 8) was added immobilized TCEP beads (2% v/v).
(§2) After incubation of the fluorescence plates for 1 hour at room temperature, fluorescence measurements (excitation/emission of 380/470 nm) were taken on a PerkinElmer EnVision multilabel plate reader and processed with EnVision Workstation version 1.12.
(§3) Fluorescence measurements were normalized against a DMSO/thiol only control and plotted against time.
(§4) Rate constants were calculated using GraphPad software Prism version 6 by fitting a first order exponential decay to the data. The rate constant for each acrylamide with Cdk2 was divided by the rate constant for that fragment with the model thiol to provide the rate enhancement for each ligand candidate.
(§5) A further set of set of additional Cdk2 mutants were screened, all containing the C177A mutation and therefore with only one cysteine on the surface: • F80C (without the K278C mutation) • H71C • S276C • N272 • T182C • R122C • S181C
(§6) Mutations were introduced by site-directed mutagenesis and the resulting cDNA was cloned into the pRSETA bacterial expression vector to generate a poly-histidine tagged Cdk2 fusion that was purified from E. coli using standard techniques.

Cdk2(C177A, F80C) = molecular target: T2, Cdk2(C177A, F80C) (Homo sapiens, UniProt P24941, C177A/F80C); assay: Kinetic thiol consumption assay with Cdk2 mutant F80C, incl. kobs versus concentration (Kd, k2); format: binding; parameters: key to Rate enhancement, Cdk2 F80C: Cdk2 rate constant divided by model-thiol rate constant; conditions: additional mutation C177A; for Rate constant with Cdk2 F80C: Protein: Cdk2, cysteine position F80C, in h^-1
T2 construct: poly-histidine; made in house; host or cells: E. coli
Experimental: Therefore the assay can be used to calculate both k2 and Kd by experimentally determining kobs at a suitable range of ligand candidate concentrations. Typically Kd and k2 would then be determined by fitting a hyperbolic curve to a plot of kobs against ligand candidate concentration (FIG. 9).
as §1, §2, §3, §4, §5, §6
Rate constants were calculated as described in the methodology section of Examples 1 and 2.

Cdk2(H71C) (C177A) = molecular target: T3, Cdk2(H71C) (C177A) (Homo sapiens, UniProt P24941, C177A/H71C); assay: Kinetic thiol consumption assay with Cdk2 mutant H71C; format: binding; parameters: key to Rate enhancement, Cdk2 H71C: rate constant with Cdk2 ÷ rate constant with model thiol (fold); conditions: additional mutation C177A; for Rate constant with Cdk2 H71C: Protein: Cdk2, cysteine position H71C, in h^-1
T3 construct: poly-histidine; made in house; host or cells: E. coli
Experimental: as §1, §2, §3, §4, §5, §6

Cdk2(R122C) (C177A) = molecular target: T4, Cdk2(R122C) (C177A) (Homo sapiens, UniProt P24941, C177A/R122C); assay: Kinetic thiol consumption assay with Cdk2 mutant R122C; format: binding; parameters: key to Rate enhancement, Cdk2 R122C: rate constant with Cdk2 ÷ rate constant with model thiol (fold); conditions: additional mutation C177A; for Rate constant with Cdk2 R122C: Protein: Cdk2, cysteine position R122C, in h-1
T4 construct: poly-histidine; made in house; host or cells: E. coli
Experimental: as §1, §2, §3, §4, §5, §6

[1] = Kinetic thiol consumption assay with model thiol glutathione; format: physicochemical; conditions: Protein: Glutathione; cysteine position NA; in h-1
Experimental: (§7) A library of 120 acrylamides was screened against a) human cyclin-dependent kinase 2 (Cdk2, which contains one surface exposed cysteine residue—C177), prepared by cloning cDNA into the pRSETA bacterial expression vector to generate a poly-histidine tagged Cdk2 fusion that was purified from E. coli using standard techniques, and b) a model thiol (specific details are given below). The structures of these 120 acrylamides are set out in Table 1, above.
as §1, §2, §3, §4
The model thiol in Example 1 is glutathione (GSH). Hits were defined as fragments where kCdk2/kGSH>5.8 (empirically determined as 3 standard deviations over the mean).

Cdk2(T182C) (C177A) = molecular target: T5, Cdk2(T182C) (C177A) (Homo sapiens, UniProt P24941, C177A/T182C); assay: Kinetic thiol consumption assay with Cdk2 mutant T182C; format: binding; parameters: key to Rate enhancement, Cdk2 T182C: rate constant with Cdk2 ÷ rate constant with model thiol (fold); conditions: additional mutation C177A; for Rate constant with Cdk2 T182C: Protein: Cdk2, cysteine position T182C, in h^-1
T5 construct: poly-histidine; made in house; host or cells: E. coli
Experimental: as §1, §2, §3, §4, §5, §6

[2] = molecular target: T6, human cyclin-dependent kinase 2 (Cdk2) (Homo sapiens, UniProt P24941); assay: Kinetic thiol consumption assay with wild type Cdk2 (C177); format: binding; parameters: key to Rate enhancement, Cdk2 WT: k(Cdk2) divided by k(model thiol); conditions: for Rate enhancement, Cdk2 WT: no additional mutations; for Rate constant with Cdk2 WT: Protein: Cdk2, cysteine position WT, in h^-1
T6 construct: poly-histidine; made in house; host or cells: E. coli
Experimental: as §7, §1, §2, §3, §4

Cdk2(N272C) (C177A) = molecular target: T7, Cdk2(N272C) (C177A) (Homo sapiens, UniProt P24941, C177A/N272C); assay: Kinetic thiol consumption assay with Cdk2 mutant N272C; format: binding; parameters: key to Rate enhancement, Cdk2 N272: rate constant with Cdk2 ÷ rate constant with model thiol (fold); conditions: for Rate enhancement, Cdk2 N272: Cdk2 N272, additional mutation C177A; for Rate constant with Cdk2 N272C: Protein: Cdk2, cysteine position N272C, additional mutation C177A, in h^-1
T7 construct: poly-histidine; made in house; host or cells: E. coli
Experimental: as §1, §2, §3, §4, §5, §6

Cdk2(S181C) (C177A) = molecular target: T8, Cdk2(S181C) (C177A) (Homo sapiens, UniProt P24941, C177A/S181C); assay: Kinetic thiol consumption assay with Cdk2 mutant S181C; format: binding; parameters: key to Rate enhancement, Cdk2 S181C: rate constant with Cdk2 ÷ rate constant with model thiol (fold); conditions: additional mutation C177A; for Rate constant with Cdk2 S181C: Protein: Cdk2, cysteine position S181C, in h^-1
T8 construct: poly-histidine; made in house; host or cells: E. coli
Experimental: as §1, §2, §3, §4, §5, §6

SMILES | Rate enhancement, Cdk2 S276C (Cdk2(S276C) (C177A)) | Rate constant with Cdk2 S276C (Cdk2(S276C) (C177A)) | Rate enhancement, Cdk2 F80C (Cdk2(C177A, F80C)) | Rate constant with Cdk2 F80C (Cdk2(C177A, F80C)) | Rate enhancement, Cdk2 H71C (Cdk2(H71C) (C177A)) | Rate constant with Cdk2 H71C (Cdk2(H71C) (C177A)) | Rate enhancement, Cdk2 R122C (Cdk2(R122C) (C177A)) | Rate constant with Cdk2 R122C (Cdk2(R122C) (C177A)) | Rate constant with Glutathione [1] | Rate enhancement, Cdk2 T182C (Cdk2(T182C) (C177A)) | Rate constant with Cdk2 T182C (Cdk2(T182C) (C177A)) | Rate enhancement, Cdk2 WT [2] | Rate constant with Cdk2 WT [2] | Rate enhancement, Cdk2 N272 (Cdk2(N272C) (C177A)) | Rate constant with Cdk2 N272C (Cdk2(N272C) (C177A)) | Rate enhancement, Cdk2 S181C (Cdk2(S181C) (C177A)) | Rate constant with Cdk2 S181C (Cdk2(S181C) (C177A))
C=CC(=O)N1CCn2c(C(=O)NC3CC3)ccc2C1C (stereo not shown) [CA-040/230] | 0.7654 | 0.03282 | 0.3102 | 0.0133 | 0.7334 | 0.03145 | 0.285 | 0.01222 | 0.04288 | 1.268 | 0.05436 | 0.6915 | 0.02965 | 3.076 | 0.1319 | 0.247 | 0.01059
O=C(CCl)NCCc1c[nH]c2ccccc12 [EN005] | 13.55 | 0.03433 | 0.8693 | 0.002202 | 0.852 | 0.002158 | 0.5681 | 0.001439 | 0.002533 | 11.33 | 0.02869 | 6.167 | 0.01562 | 0 |  | 5.886 | 0.01491
CC1CN(C(=O)CCl)CC(C)O1 (stereo not shown) [EN012] | 0.5904 | 0.1594 | 0 |  | 0.03607 | 0.009738 | 0.02811 | 0.00759 | 0.27 | 0.3161 | 0.08536 | 1.086 | 0.2933 | 0.1055 | 0.02849 | 0.067 | 0.01809
